Test [1] concerns locomotor activity. Nature of the test: Decreased Locomotor Activity (L.M.A.), mouse. The test is classed as in vivo. To be noted: po, read-out: L.M.A. MED. How it is done: (§1) Decreased Locomotor Activity (L.M.A.)
(§2) This reaction sign is measured subjectively by observing how an animal behaves when it is removed from an observation cage and placed on a table top. […] The degree of stimulation by the observer needed to produce active locomotion is rated on an arbitrary scale. This ranges from a score of -1 where only a slight touch of the animal's body is required to a -4 where the animal is unresponsive or minimally responsive to the application of a pain stimulus (pressure at the base of the tail). The minimal effective dose (MED) is the lowest oral dose producting an obvious decrease of locomotor activity (with a score of at least -1). Groups of 3 mice are given decreasing oral doses at 0.5 log intervals (300, 100, 30. . .etc.) until no behavioral effects are evident. Decrease of locomotor activity is indicative of general central nervous system depressant activity.

Test [2] has as its system locomotor activity. Nature of the test: Decreased Locomotor Activity (L.M.A.), rat. To be noted: po, read-out: L.M.A. MED. The test is classed as in vivo. The protocol: as §1, §2
The subject of test [3] is eyelid closure (ptosis). Nature of the test: Ptosis, mouse. Format: in vivo. Conditions: po, read-out: Ptosis MED.
Test [4] concerns eyelid closure (ptosis). Nature of the test: Ptosis, rat. Format: in vivo. To be noted: po, read-out: Ptosis MED. The text has this: Degree of eyelid closure is used as a measure of central nervous system depression. An animal is removed from its observation cage and allowed to remain outside the cage for 30 seconds. At the end of this time a rating of degree of eyelid closure is made on an arbitrary scale.

The test system of test [5] is catalepsy. The experiment in a line: Catalepsy, mouse. The test is classed as in vivo. Conditions: po, read-out: Catalepsy MED. The text has this:
(§3) The ability of an animal to remain in an abnormal position is used as another indication of central nervous system depressant activity. A test animal is removed from its observation cage and positioned so that its hind legs are on the table top and its front legs rest on the side of the observation cage. If an animal maintains this position for at least 10 seconds, it is considered to be showing cataleptic behavior.

Test [6] concerns catalepsy. The experiment in a line: Catalepsy, rat. Conditions: po, read-out: Catalepsy MED. Format: in vivo.
Source text: as §3

Test [7] concerns TBZ-induced ptosis. Nature of the test: Tetrabenazine Antagonism (T.B.Z.A.), mouse. The test is classed as in vivo. Conditions: 1 h, po, read-out: T.B.Z.A. ED50. The protocol: (§4) Tetrabenazine Antagonism (T.B.Z.A.)
(§5) The tetrabenazine (TBZ) antagonism test is used to test for potential antidepressant-like activity in rodents. One hour after oral administration of a test compound, a 40 mg/kg dose of TBZ is given subcutaneously. Thirty minutes after TBZ administration, the mice are placed in the center of a circle; the diameter of the circle is twice the body length of the mouse or rat. After 30 seconds, a reading is made of the degree of ptosis and whether the animal has moved out of the circle. Animals that have received only TBZ will show marked ptosis and immobility. Tricyclic antidepressants of the imipramine type will antagonize the ptosis but not the immobility. Antidepressants of the amphetamine or monoamine oxidase inhibitory type will antagonize both the ptosis and immobility induced by TBZ. The ED50 is the dose producing antagonism of TBZ-induced ptosis, but not of TBZ-induced immobility, in 50% of the animals.

For test [8], the system named is TBZ-induced ptosis. The experiment in a line: Tetrabenazine Antagonism (T.B.Z.A.), rat. Format: in vivo. To be noted: 1 h, po, read-out: T.B.Z.A. ED50. The protocol:
as §4, §5

In test [9] the test system is fear / feeding in approach-avoidance conflict. Nature of the test: Rat Conflict (Approach-Avoidance) Test. The test is classed as in vivo. Conditions: po, read-out: Conflict MED. How it is done: Rat Conflict (Approach-Avoidance) Test (Conflict)
Results given in: mg/kg po/rat
Food deprived rats are trained to pass from one compartment to an adjacent one to obtain food. The training consists of 3 exposures to the test situation on day one of the experiment. The rats are given limited (1-2 hr) free access to food in their home cages on day one and are then food deprived for at least 18 hours. On day two of the experiment, the rats are given a control exposure to the test situation followed by a second exposure after one-half to 1 hour in which they are shocked after crossing and eating. Groups of 6-8 rats are then dosed orally with solvent or test compound and then re-exposed to the test situation after 1 or 2 hours.
Compounds showing minor tranquilizer (anxiolytic) activity in man such as diazepam and meprobamate produce an apparent decreased fear in the test animals so that they cross to obtain food despite having received a shock earlier. This effect is dose-related (and the MED is the minimum dose at which this effect is obtained); rats dosed with solvent only consistently show a high level of fear as evidenced by decreased mobility and absence of feeding when placed in the test situation after receiving a shock.

Test [10] relates to conditioned avoidance response. The experiment in a line: Conditioned Avoidance Response (C.A.R.), mouse. Conditions: po, read-out: C.A.R. ED50. Format: in vivo. How it is done: (§6) Mouse and Rat Conditioned Avoidance Response (C.A.R.):
(§7) Mice and rats are trained to jump out of a pit onto a ledge to avoid shock when presented with a light and sound conditioned stimulus. The animals are tested 1, 2, and 4 hours after administration of the test compound. Three to four dose levels and groups of 4-8 animals/dose are used. The ED50 is the dose producing a block of the C.A.R. in 50% of the animals. Blocking of the C.A.R. at non-toxic doses appears to correlate with major tranquilizer activity in man.

The test system of test [11] is conditioned avoidance response. The experiment in a line: Conditioned Avoidance Response (C.A.R.), rat. To be noted: po, read-out: C.A.R. ED50. The test is classed as in vivo. How it is done: as §6, §7
In test [12] the test system is conditioned avoidance response. Nature of the test: Dog Conditioned Avoidance Response (C.A.R.). Format: in vivo. To be noted: Canis lupus familiaris, po, read-out: C.A.R. ED50. How it is done:
Dog Conditioned Avoidance Response (C.A.R.):
Results given in: mg/kg po/dog
Dogs are trained to raise a forelimb when presented with a conditioned stimulus (light) in order to avoid an electric shock. Blocks of 10 trials are given to groups of 4 dogs during a pretreatment period and at 1, 2, and 4 hours after oral administration of the test compound. The ED50 values are calculated as the dose causing 50% of the animals to show 5 or more incorrect responses. Blocking of the C.A.R. at non-toxic doses appears to correlate with major tranquilizer activity in man.

The subject of test [13] is taming. Nature of the test: Rhesus Monkey Taming Effects. The test is classed as in vivo. To be noted: Macaca mulatta, po, read-out: Taming MED. How it is done:
Rhesus Monkey Taming Effects (Taming):
Results given in: mg/kg po/monkey
Compounds are administered orally to groups of 6 rhesus monkeys. The behavior of the animals is then evaluated by observational means. Taming effects are determined by the ability of the observer to approach and touch the monkey. Compounds with major tranquilizer activity in man can produce a state of passive tameness in the rhesus monkey wherein it can be touched without provoking any of the threatening or aggressive behavior seen in the normal animal. The MED is the minimal oral dose at which some taming effect can be observed.

In test [14] the test system is phenyl-p-benzoquinone-induced writhing. Nature of the test: Phenylquinone Writhing (P.Q.W.). Format: in vivo, mouse. To be noted: 0.5 h; mouse, po; phenyl-p-benzoquinone 2.5 mg/kg i.p. 30 minutes after compound; read-out: P.Q.W. ED50.
The mark [15] stands for this setting: mouse, TBZ 40 mg/kg s.c. one hour after compound.
The mark [16] stands for this setting: rat, TBZ 40 mg/kg s.c. one hour after compound.
Setting [17] is: mouse, block of C.A.R. in 50% of animals, 1, 2, and 4 hours.
The mark [18] stands for this setting: rat, block of C.A.R. in 50% of animals, 1, 2, and 4 hours.
Setting [19] is: dog, 5 or more incorrect responses in 50% of animals, 1, 2, and 4 hours.

Structures are written as SMILES. Like-named read-outs stand apart in the source and are kept apart here. A value given as a limit tells only on which side of the number the result lay.

What is called ED50 is the midpoint of the dose-response relation. Take `c1ccc2c(c1)CCc1cccc3c1N2[C@@H]1CCN(CC2CC2)C[C@@H]31` (relative stereo) [Example 2, trans-3-(Cyclopropylmethyl)-1,2,3,4,4a,8,9,14a-octahydropyrido[4',3':2,3]indolo[1,7-ab][1]benzazepine]: the minimal effective dose in test [1] (mouse, minimal effective dose) came out at 3 mg/kg; in [2] (minimal effective dose), 1 mg/kg; in test [3] (mouse, passive ptosis) it was 10 mg/kg; in test [4] (rat, passive ptosis), 3 mg/kg; in test [5] (mouse) it was 3 mg/kg; in test [6] (rat), 3 mg/kg. The minimal effective dose in [9] (rat, after 1 or 2 hours) was over 40 mg/kg; in test [13] (rhesus monkey) it was 1 mg/kg. In addition, the ED50 was over 100 mg/kg in test [7] (setting [15]); over 100 mg/kg in test [8] (setting [16]); 0.7 mg/kg in test [10] (setting [17]); 0.7 mg/kg in test [11] (setting [18]); 3 mg/kg in test [12] (setting [19]); 2.3 mg/kg in [14].
Regarding `CN1CC[C@H]2[C@@H](C1)c1cccc3c1N2c1ccccc1CC3` (relative stereo) [methyl octahydro cis], the minimal effective dose in test [1] (Mus musculus) was 30 mg/kg; in test [2] it was 30 mg/kg; in test [3] (Mus musculus) it was over 300 mg/kg; in test [4] (Rattus norvegicus), over 300 mg/kg; in [5] (Mus musculus), over 300 mg/kg; in test [6] (Rattus norvegicus) it was over 300 mg/kg. The minimal effective dose in [9] (Rattus norvegicus) is over 40 mg/kg; in test [13] it was over 20 mg/kg. Further, the ED50 is 15 mg/kg in [7] (Mus musculus); 7.4 mg/kg in [8] (Rattus norvegicus); over 40 mg/kg in test [10] (Mus musculus, 4 h); over 40 mg/kg in test [11] (Rattus norvegicus, 4 h); over 30 mg/kg in test [12] (4 h).
For `c1ccc2c(c1)CCc1cccc3c4c(n-2c13)CCN(CC1CC1)C4` [(cyclopropylmethyl) hexahydro, 3-(cyclopropylmethyl)-1,2,3,4,8,9-hexahydropyrido[4',3':2,3]indolo[1,7-ab][1]benzazepine], the minimal effective dose in test [1] (mouse, minimal effective dose) is 10 mg/kg; in test [2] (minimal effective dose), 10 mg/kg; in test [3] (mouse, passive ptosis), 30 mg/kg; in [4] (rat, passive ptosis) it was 30 mg/kg; in [5] (mouse) it was 30 mg/kg; in [6] (rat), 30 mg/kg. Also, the minimal effective dose was 10 mg/kg in [9] (rat, after 1 or 2 hours) and 3 mg/kg in [13] (rhesus monkey). Also, the ED50 in test [7] (setting [15]) was over 100 mg/kg; in test [8] (setting [16]), over 100 mg/kg; in test [10] (setting [17]), 20 mg/kg; in [11] (setting [18]), 40 mg/kg; in [12] (setting [19]), over 30 mg/kg.
Regarding `CCN1CCc2c(c3cccc4c3n2-c2ccccc2CC4)C1` [ethyl hexahydro], the minimal effective dose is 30 mg/kg in test [1] (mouse, minimal effective dose); 30 mg/kg in [2] (minimal effective dose); 30 mg/kg in [3] (mouse, passive ptosis); over 300 mg/kg in test [4] (rat, passive ptosis); over 300 mg/kg in test [5] (mouse); over 300 mg/kg in test [6] (rat). Also, the minimal effective dose in test [9] (rat, after 1 or 2 hours) was 20 mg/kg; in [13] (rhesus monkey) it was over 20 mg/kg. For the same compound, the ED50 in test [7] (setting [15]) was over 100 mg/kg; in test [8] (setting [16]), over 100 mg/kg; in [10] (setting [17]), over 40 mg/kg; in test [11] (setting [18]), over 40 mg/kg; in test [12] (setting [19]), over 30 mg/kg.
Turning to `CN1CCc2c(c3cccc4c3n2-c2ccccc2CC4)C1` [methyl hexahydro, 1,2,3,4,8,9-hexahydro-3-methylpyrido[4',3':2,3]indolo[1,7-ab][1]benzazepine], the minimal effective dose in [1] (mouse, minimal effective dose) amounted to 10 mg/kg; in [2] (minimal effective dose) it was 30 mg/kg; in [3] (mouse, passive ptosis) it was 30 mg/kg; in test [4] (rat, passive ptosis), 30 mg/kg; in test [5] (mouse) it was 300 mg/kg; in test [6] (rat), 100 mg/kg. Besides, the minimal effective dose in test [9] (rat, after 1 or 2 hours) was determined as 20 mg/kg; in test [13] (rhesus monkey) it was 10 mg/kg. The ED50 in [7] (setting [15]) was over 100 mg/kg; in [8] (setting [16]), over 100 mg/kg; in [10] (setting [17]), 20 mg/kg; in [11] (setting [18]) it was 30 mg/kg; in test [12] (setting [19]) it was over 30 mg/kg.

(Values after US3932650A, “Trans-octahydropyridoindolobenzazepines as central nervous system depressants” (E. I. Du Pont de Nemours & Company, priority 1973, dated 1976).)
